The record followed here is patent US4959373A, “Bispidine derivatives as class III antiarrhythmic agents” (BASF Aktiengesellschaft, priority 1987, dated 1990).

Structures can show the parent of a compound that is named as a salt.

In the test the test system is QT interval. Description: Antiarrhythmic Class III action in guinea pigs after intravenous administration (QT interval prolongation in the ECG). Type of test: in vivo, Pirbright white guinea pigs. Particulars: Cavia porcellus, anesthetized with urethane, ED 20% from linear relationship between log dose and relative QT prolongation (Δ%). The protocol:
The experimental animals used are male and female Pirbright white guinea pigs weighing from 300 to 500 g. Anesthesia is effected with 1.5 g/kg of urethane administered intraperitoneally. The substances are administered intravenously. To measure the ECG conduction times and the heart rate, the II. limb lead is recorded. The relevant parameters are the QT and PQ intervals and the heart rate. From 4 to 6 animals are used per dose. The criterion for Class III action is an increase in the QT interval compared with the values prior to administration of the substance. An increase in the PQ interval and a sharp decrease in the heart rate serve as exclusion criteria. The ED 20% is calculated from the linear relationship between log dose (mg/kg) of the substance and the relative prolongation of the QT interval (Δ%).
`CC(C)NC[C@@H](O)c1ccc(NS(C)(=O)=O)cc1` [D-sotalol, reference compound]: the ED (20%) was determined as 3.6 mg/kg.

Regarding `Nc1ccc(C(=O)N2CC3CC(CN(Cc4ccccc4)C3)C2)cc1` [Ambasilide, reference compound], the ED (20%) was found to be 6.3 mg/kg.

`O=C(Nc1ccc(Cl)cc1)N1CC2CC(CN(Cc3ccccc3)C2)C1` [Example 23, 7-Benzyl-3-(4-chlorophenylcarbamyl)-3,7-diazabicyclo[3.3.1]nonane] gave an ED (20%) of 2.4 mg/kg.

Compound `O=C(Nc1ccccc1)N1CC2CC(CN(Cc3ccc(Cl)cc3)C2)C1` [Example 26, 3-(Phenylcarbamyl)-7-(4-chlorobenzyl)-3,7-diazabicyclo[3.3.1]nonane] yielded an ED (20%) of 3.6 mg/kg.

In turn, `O=C(c1ccc(Cl)cc1)N1CC2CC(CN(Cc3ccccc3)C2)C1` [Example 2, 7-benzyl-3-(4-chlorobenzoyl)-3,7-diazabicyclo[3.3.1]nonyl hydrochloride] showed an ED (20%) of 4.6 mg/kg.

The compound `Cc1ccc(NC(=O)N2CC3CC(CN(Cc4ccccc4)C3)C2)cc1` [Example 21, 7-Benzyl-3-(4-methylphenylcarbamyl)-3,7-diazabicyclo[3.3.1]nonane] gave an ED (20%) of 2.6 mg/kg.
